Test results taken from PMC12059914, “Discovery of Novel Allosteric Inhibitor Hits for Insulin-Regulated Aminopeptidase Provides Insights on Enzymatic Mechanism” (ACS Omega, 2025).

What was measured:
Type in all cases: biochemical
[1] = molecular target: T1, IRAP (insulin-regulated aminopeptidase) (Homo sapiens, UniProt Q9UIQ6); experiment: fluorogenic Leu-AMC hydrolysis, dose-response
T1 construct: gene LNPEP; extracellular (luminal) aminopeptidase domain; Rhodopsin 1D4 tag (given as N-terminal); secreted from stably transfected HEK 293S GnTI(-) cells; PDB ids are the docking structures
T1 sequence (Q9UIQ6 132-1025 limits assumed): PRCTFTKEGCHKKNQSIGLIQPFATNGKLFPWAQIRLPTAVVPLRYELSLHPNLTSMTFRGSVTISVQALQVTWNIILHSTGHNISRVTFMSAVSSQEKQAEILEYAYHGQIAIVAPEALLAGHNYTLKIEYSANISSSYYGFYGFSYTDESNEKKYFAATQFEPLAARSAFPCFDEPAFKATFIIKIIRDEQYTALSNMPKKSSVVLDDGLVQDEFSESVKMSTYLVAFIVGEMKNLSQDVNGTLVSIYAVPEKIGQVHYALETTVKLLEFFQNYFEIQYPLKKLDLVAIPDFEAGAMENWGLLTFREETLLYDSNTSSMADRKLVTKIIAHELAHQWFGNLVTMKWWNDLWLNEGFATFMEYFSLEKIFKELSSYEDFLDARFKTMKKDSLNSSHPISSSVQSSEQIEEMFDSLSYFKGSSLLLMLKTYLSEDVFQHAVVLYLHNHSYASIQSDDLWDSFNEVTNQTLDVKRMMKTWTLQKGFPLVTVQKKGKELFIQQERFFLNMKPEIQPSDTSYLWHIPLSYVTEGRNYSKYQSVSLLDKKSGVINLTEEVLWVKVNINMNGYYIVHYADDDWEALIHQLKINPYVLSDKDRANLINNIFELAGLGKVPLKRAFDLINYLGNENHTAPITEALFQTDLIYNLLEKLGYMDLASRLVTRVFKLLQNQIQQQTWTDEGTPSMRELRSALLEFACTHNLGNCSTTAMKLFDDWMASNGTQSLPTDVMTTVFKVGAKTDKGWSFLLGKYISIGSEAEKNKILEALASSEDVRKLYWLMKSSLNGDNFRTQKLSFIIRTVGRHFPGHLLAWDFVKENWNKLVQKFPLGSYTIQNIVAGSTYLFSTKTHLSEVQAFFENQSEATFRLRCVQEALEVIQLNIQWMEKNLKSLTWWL

[2] = molecular target: T2, ERAP1 (Homo sapiens, UniProt Q9NZ08); experiment: fluorogenic Leu-AMC hydrolysis, dose-response
T2 construct: recombinant; Hi5 insect cells, baculovirus; Ni-NTA purified
T2 sequence (Q9NZ08 whole entry): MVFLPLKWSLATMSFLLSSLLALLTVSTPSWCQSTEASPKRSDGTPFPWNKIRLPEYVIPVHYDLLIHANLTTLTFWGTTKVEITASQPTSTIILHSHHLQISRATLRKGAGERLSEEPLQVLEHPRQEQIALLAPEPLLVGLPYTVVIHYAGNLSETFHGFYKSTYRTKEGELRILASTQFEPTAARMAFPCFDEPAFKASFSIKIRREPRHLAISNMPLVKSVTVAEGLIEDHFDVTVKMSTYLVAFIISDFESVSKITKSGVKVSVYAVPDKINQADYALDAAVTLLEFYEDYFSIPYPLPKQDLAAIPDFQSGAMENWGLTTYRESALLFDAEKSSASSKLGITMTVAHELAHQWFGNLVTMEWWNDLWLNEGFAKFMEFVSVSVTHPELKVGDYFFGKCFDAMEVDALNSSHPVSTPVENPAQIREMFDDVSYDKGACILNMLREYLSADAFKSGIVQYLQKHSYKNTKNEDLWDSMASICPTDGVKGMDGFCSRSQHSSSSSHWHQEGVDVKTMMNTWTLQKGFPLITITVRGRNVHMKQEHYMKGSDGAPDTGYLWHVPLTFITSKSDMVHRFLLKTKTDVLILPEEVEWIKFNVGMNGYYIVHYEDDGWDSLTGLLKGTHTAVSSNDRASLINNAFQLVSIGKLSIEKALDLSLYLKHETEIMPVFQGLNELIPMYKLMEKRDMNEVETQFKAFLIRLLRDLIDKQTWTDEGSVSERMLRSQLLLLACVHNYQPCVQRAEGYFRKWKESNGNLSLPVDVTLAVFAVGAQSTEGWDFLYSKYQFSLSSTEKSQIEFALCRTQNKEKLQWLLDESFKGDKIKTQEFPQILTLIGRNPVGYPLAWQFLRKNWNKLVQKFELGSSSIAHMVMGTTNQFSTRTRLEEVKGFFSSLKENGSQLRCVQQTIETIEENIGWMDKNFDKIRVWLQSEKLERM

[3] = molecular target: T3, ERAP2 (Homo sapiens, UniProt Q6P179); experiment: fluorogenic Arg-AMC hydrolysis, dose-response
T3 construct: recombinant; Hi5 insect cells, baculovirus; Ni-NTA purified
T3 sequence (Q6P179 whole entry): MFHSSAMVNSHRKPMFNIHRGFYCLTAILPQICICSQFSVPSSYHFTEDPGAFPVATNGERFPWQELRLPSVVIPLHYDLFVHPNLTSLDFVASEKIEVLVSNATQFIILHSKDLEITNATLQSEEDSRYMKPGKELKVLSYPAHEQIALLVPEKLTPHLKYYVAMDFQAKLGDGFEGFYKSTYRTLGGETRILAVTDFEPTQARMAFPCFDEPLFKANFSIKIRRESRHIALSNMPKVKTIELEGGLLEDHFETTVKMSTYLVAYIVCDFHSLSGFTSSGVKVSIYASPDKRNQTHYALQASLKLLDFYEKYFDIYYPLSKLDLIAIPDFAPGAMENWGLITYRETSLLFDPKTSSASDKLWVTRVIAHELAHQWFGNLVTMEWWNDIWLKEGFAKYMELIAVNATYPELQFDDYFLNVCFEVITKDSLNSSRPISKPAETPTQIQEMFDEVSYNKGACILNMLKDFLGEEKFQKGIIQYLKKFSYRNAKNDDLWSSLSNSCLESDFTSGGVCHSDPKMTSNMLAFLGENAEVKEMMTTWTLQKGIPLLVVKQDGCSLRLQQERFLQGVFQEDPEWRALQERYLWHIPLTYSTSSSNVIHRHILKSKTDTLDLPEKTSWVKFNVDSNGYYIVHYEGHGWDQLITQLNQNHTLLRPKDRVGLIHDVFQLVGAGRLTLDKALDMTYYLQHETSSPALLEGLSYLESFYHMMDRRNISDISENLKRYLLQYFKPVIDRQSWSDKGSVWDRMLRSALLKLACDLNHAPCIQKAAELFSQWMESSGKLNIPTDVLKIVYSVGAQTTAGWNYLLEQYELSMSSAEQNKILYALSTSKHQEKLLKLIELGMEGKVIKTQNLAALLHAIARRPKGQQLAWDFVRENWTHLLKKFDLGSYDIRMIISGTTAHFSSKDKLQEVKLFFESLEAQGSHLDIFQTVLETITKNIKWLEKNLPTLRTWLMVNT

[4] = molecular target: T2, ERAP1; experiment: fluorogenic Leu-AMC hydrolysis, dose-response; remark: listed apart in the source
[5] = molecular target: T1, IRAP (insulin-regulated aminopeptidase); experiment: HPLC vasopressin trimming, dose-response
[6] = molecular target: T1, IRAP (insulin-regulated aminopeptidase); experiment: Michaelis-Menten, fluorescence; conditions: pH 7.0, 1 nM enzyme, no inhibitor

| IC50 [1] | IC50 [2] | IC50 [3] | EC50 [4] | IC50 [5] | Compound | KM [6] |
| --- | --- | --- | --- | --- | --- | --- |
| 208 µM | > 300 µM | 3600 µM | – | – | Cc1ccc(CC(C)(CO)NC(=O)c2cc(-c3c[nH]c4ccccc34)[nH]n2)cc1 (racemic) [compound 17] | – |
| 30 µM | > 300 µM | > 10000 µM | – | – | O=C(O)c1cc(CN2CCCCC2CCCc2ccccc2)[nH]n1 (racemic) [compound 8] | – |
| 125 µM | – | 1300 µM | ~450 µM | – | NCc1cc(C(=O)NC(Cc2ccccc2Cl)c2ccccc2)n[nH]1 (racemic) [compound 11] | – |
| – | – | – | – | 280 µM | O=C(O)C1(CF)CCN(Cc2cc3c(Br)cc(F)cc3[nH]2)C1 (racemic) [compound 2] | – |
| – | – | – | – | – | Cc1cc(=O)oc2cc(NC(=O)[C@@H](N)CC(C)C)ccc12 [Leu-AMC] | Michaelis–Menten analysis of (A, B) Leu-AMC substrate digestion by IRAP |
